Experimental data as given in patent publication US12630498B2 (Genzyme Corporation, priority 2019, dated 2026).

Target: T1, human Cystic Fibrosis Transmembrane Conductance Regulator (CFTR) harboring the ΔF508 mutation (Homo sapiens, UniProt P13569, DEL508-508)
T1 construct: expressed in transfected cells; host or cells: H441 carcinoma line (G418-selected)
Experiment: H441 cell ΔF508-CFTR-HRP cell surface assay (Emax and EC50)
Format: cell-based
Conditions: for Emax: NCI-H441, NA = Not active
Description: Example 315: H441 Cell Emax and EC50 Two cell lines were used, the H441 carcinoma line and the CFHBE41o- (41o-) human bronchial epithelial line. Both cell lines expressed human Cystic Fibrosis Transmembrane Conductance Regulator (CFTR) harboring the ΔF508 mutation and with an in-frame fusion in CFTR extracellular loop 4 of Horse Radish Peroxidase (HRP) under control of the CMV promoter. In the presence of the HRP tag, ΔF508-CFTR transported to the cell surface was detectable upon addition of an HRP substrate (Luminata Forte). Both cell types were cultivated at 37° C. with CO2. […] For both cell types, the medium was changed every other day unless the culture was at low % confluence. Cells were used for the assays at 75% confluence. To a polypropylene (PP) 384-well plate, 15 pls DMSO was added to all wells in columns 1-22 and 24 (low Control). 15 μls of 260 μM VX809 (Lumacaftor), Selleckchem […], was added to column 23 wells (high Control). 15 pls of 10 mM test compound or VX809 (control) were added to wells of row A. Serial dilutions of Row A compound were performed 2×15 pls in rows A through 0 (15-point). A PP, 384-well plate containing the appropriate cell culture medium was prepared for each assay plate with 100 pls per well. For the doxycycline-induced 41o-cells, doxycycline for both the assay plate and the medium dilution plate was added at 0.0005 mg/ml to the medium. Both cell lines were plated for the assay at 30 pls per 384-well at 3.4×10 e^5 cells per ml ( 10K cells/well). H441 cells were plated on opaque, white, Corning plate 3704. 41o-cells were plated on collagen-coated opaque, white, Corning plate 356665. For 41o-cells, doxycycline was added to the medium. Using FX (Beckman) protocol, 10 pls diluted compound or medium was added per well to the Assay Plate as: 2 pls DMSO Dilution plate well was diluted in 100 pls of the Medium Dilution Plate well, mixed, and 10 pls was transferred to the Assay Plate. The final assay dilution series was 24.5, 12.3, 6.1, 3.1, 1.5, 0.8, 0.4, 0.2, 0.1, 0.05, 0.02, 0.01, 0.006, 0.003, 0.001 and 0 μM. The 41o-assay plates were incubated at 37° C. w/CO2, the H441 assay plates were incubated at 27° C. w/CO2, each overnight for two nights. After being brought to room temperature, the assay plate liquid was removed. 30 uls of Luminata Forte (Millipore ELLUF0100) was added per well and incubated at room temperature for 10 min. The plates were then read on a Topcount, protocol LumiMatti (CPS, luminescence). The data was analyzed for % of maximum, maximum VX809 signal, and EC50 using Pearl and SPEED tools.

T1 sequence (P13569 with tags, fused parts or gaps DEL508-508): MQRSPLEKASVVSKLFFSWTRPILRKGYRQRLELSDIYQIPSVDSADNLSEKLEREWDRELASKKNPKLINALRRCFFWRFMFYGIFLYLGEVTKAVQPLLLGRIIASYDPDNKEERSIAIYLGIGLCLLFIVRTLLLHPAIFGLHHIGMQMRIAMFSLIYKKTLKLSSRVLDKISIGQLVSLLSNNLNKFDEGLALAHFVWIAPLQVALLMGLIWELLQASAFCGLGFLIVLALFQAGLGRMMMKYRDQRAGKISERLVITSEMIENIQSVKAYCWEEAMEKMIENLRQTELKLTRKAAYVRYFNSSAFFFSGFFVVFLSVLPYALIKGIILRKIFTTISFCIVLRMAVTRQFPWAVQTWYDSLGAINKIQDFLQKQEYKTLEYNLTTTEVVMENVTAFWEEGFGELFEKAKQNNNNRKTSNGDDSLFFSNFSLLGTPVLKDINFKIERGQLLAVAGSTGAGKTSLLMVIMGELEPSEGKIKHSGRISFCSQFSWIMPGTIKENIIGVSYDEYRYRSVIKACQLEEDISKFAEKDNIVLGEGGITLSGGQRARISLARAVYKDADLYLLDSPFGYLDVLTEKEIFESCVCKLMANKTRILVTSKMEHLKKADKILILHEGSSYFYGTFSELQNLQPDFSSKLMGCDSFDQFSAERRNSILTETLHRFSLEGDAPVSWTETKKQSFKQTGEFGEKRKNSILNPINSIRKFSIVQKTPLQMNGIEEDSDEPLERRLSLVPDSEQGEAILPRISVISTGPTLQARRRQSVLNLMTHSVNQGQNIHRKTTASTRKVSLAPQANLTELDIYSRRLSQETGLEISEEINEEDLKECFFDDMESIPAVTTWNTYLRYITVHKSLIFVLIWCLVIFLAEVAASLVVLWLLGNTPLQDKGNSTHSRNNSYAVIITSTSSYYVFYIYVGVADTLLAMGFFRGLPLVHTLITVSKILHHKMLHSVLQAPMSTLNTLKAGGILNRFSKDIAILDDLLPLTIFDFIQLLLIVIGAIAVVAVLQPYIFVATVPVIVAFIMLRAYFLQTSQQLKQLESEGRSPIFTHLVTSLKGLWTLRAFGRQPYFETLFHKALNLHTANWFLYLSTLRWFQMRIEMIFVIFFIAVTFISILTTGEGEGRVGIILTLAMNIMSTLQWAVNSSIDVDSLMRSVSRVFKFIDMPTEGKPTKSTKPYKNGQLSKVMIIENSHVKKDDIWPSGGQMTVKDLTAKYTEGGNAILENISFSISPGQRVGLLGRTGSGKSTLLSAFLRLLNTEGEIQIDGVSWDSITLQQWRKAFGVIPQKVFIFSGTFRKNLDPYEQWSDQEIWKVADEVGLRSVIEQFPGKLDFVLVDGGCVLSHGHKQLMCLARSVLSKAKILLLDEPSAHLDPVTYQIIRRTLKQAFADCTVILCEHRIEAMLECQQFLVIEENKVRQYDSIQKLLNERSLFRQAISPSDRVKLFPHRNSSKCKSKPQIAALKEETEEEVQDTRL

Row | EC50 [µM] | Emax [%] | Compound
1 | 1.4 | 58.9 | CCC(C)(C)[C@H](NC(=O)c1ccc2cc(OC)ccc2c1OCc1ccc(C(F)(F)F)cc1)C(=O)O [Example 83, (S)-2-(6-methoxy-1-((4-(trifluoromethyl)benzyl)oxy)-2-naphthamido)-3,3-dimethylpentanoic Acid]
2 | 11.4 | 70.8 | Nc1ccc2c(OCc3ccc(C(F)(F)F)cc3)c(C(=O)N[C@H](C(=O)O)C3CCCC3)ccc2c1 [Example 187, (S)-2-(6-amino-1-((4-(trifluoromethyl)benzyl)oxy)-2-naphthamido)-2-cyclopentylacetic Acid]
3 | 5.4 | 149 | CC(C)(C)C#CCOc1c(C(=O)N[C@H](C(=O)O)C(C)(C)C)ccc2cc(F)ccc12 [Example 266, (2S)-2-[[1-(4,4-dimethylpent-2-ynoxy)-6-fluoro-naphthalene-2-carbonyl]amino]-3,3-dimethyl-butanoic Acid]
4 | 0.3 | 24.5 | O=C(N[C@@H](Cc1ccccc1)C(=O)O)c1ccc2ccccc2c1OCc1ccc(Br)cc1 [Example 122, (1-((4-bromobenzyl)oxy)-2-naphthoyl)-L-phenylalanine]
5 | 14 | 52.6 | C=CCOc1ccc(C[C@H](NC(=O)c2ccc3ccccc3c2OCc2ccc(C(F)(F)F)cc2)C(=O)O)cc1 [Example 92, (S)-3-(4-(allyloxy)phenyl)-2-(1-((4-(trifluoromethyl)benzyl)oxy)-2-naphthamido)propanoic Acid]
6 | 7.1 | 55 | CC(C)(C)C[C@H](NC(=O)c1ccc2ccccc2c1OCc1ccc(S(=O)(=O)C(F)(F)F)cc1)C(=O)O [Example 157, (S)-4,4-dimethyl-2-(1-((4-((trifluoromethyl)sulfonyl)benzyl)oxy)-2-naphthamido)pentanoic Acid]
7 | 20.4 | 40.4 | O=C(N[C@H](C(=O)O)C(c1ccccc1)c1ccccc1)c1ccc2ccccc2c1OCc1ccc(Cl)c(Cl)c1 [Example 207, (S)-2-(1-((3,4-dichlorobenzyl)oxy)-2-naphthamido)-3,3-diphenylpropanoic Acid]
8 | 20.3 | 31.5 | N#Cc1ccc(COc2c(C(=O)N[C@@H](Cc3ccccc3)C(=O)O)ccc3ccccc23)cc1 [Example 125, (1-((4-cyanobenzyl)oxy)-2-naphthoyl)-L-phenylalanine]
9 | 6.7 | 79.1 | COC(=O)[C@H](Cc1ccccc1)NC(=O)c1ccc2ccccc2c1OCc1ccc(Cl)c(Cl)c1 [Example 101, Methyl (1-((3,4-dichlorobenzyl)oxy)-2-naphthoyl)-L-phenylalaninate]
10 | 1.3 | 10.5 | CC(Oc1c(C(=O)N[C@@H](Cc2ccccc2)C(=O)O)ccc2ccccc12)c1ccc(C(F)(F)F)cc1 (stereo partly drawn) [Example 124, (1-(1-(4-(trifluoromethyl)phenyl)ethoxy)-2-naphthoyl)-L-phenylalanine]
11 | 11.6 | 49.2 | O=C(N[C@H](C(=O)O)C(c1ccccc1)c1ccccc1)c1ccc2ccccc2c1OCc1ccc(C(F)(F)F)cn1 [Example 132, (S)-3,3-diphenyl-2-(1-((5-(trifluoromethyl)pyridin-2-yl)methoxy)-2-naphthamido)propanoic Acid]
12 | 16.4 | 22.4 | CC(C)(O)[C@H](NC(=O)c1ccc2ccccc2c1OCc1ccc(C(F)(F)F)cc1)C(=O)O [Example 138, (S)-3-hydroxy-3-methyl-2-(1-((4-(trifluoromethyl)benzyl)oxy)-2-naphthamido)butanoic Acid]
13 | 4.4 | 8.7 | CC(C)(C)[C@H](NC(=O)c1ccc2ccccc2c1OCc1ccc(OC(F)(F)F)cc1)C(=O)O [Example 65, (S)-3,3-dimethyl-2-(1-((4-(trifluoromethoxy)benzyl)oxy)-2-naphthamido)butanoic Acid]
